Measured values taken from article PMC7230731 (Marine Drugs, 2020).

Tests used:
MCF-7 cells = assay: SRB antiproliferative assay, MCF-7; type: cell-based, human; settings: for IC50: MCF-7 breast cancer cells, SRB assay, 48 h, mean ± S.D. of three experiments; for potency relative to Staurosporine, MCF-7: ratio of IC50 values, MCF-7 cells
Procedure: (§1) 1. Anti-proliferative action toward human breast cell lines […]
(§2) and non-tumorigenic human breast epithelial cell line (MCF-10A) have been obtained from American Type Culture Collection (ATCC). The cells were maintained in Dulbecco's modified Eagle's medium (DMEM) supplemented with 10% heat inactivated fetal calf serum (GIBCO), penicillin (100 U/ml) and streptomycin (100 µg/ml) at 37 °C in humidified atmosphere containing 5% CO2. […]
(§3) grown in a 25 cm2 flask in 5 ml of culture medium.
(§4) The anti-proliferative activity of the tested compounds was measured in vitro using the Sulfo-Rhodamine-B stain (SRB) assay. Briefly, Cells were inoculated in 96-well microtiter plate (5X104 cells/ well) for 24 h before treatment with the tested compounds to allow attachment of cell to the wall of the plate. Tested compounds were dissolved in DMSO at 1 mg/ml immediately before use and diluted to the appropriate volume just before addition to the cell culture. Different concentrations of tested compounds, doxorubicin and sorafenib were added to the cells (three wells were prepared for each […]
(§5) atmosphere of 5% CO2. After 48 h cells were fixed, washed, and stained for 30 min with 0.4% (w/v) SRB dissolved in 1% acetic acid. Unbound dye was removed by four washes with 1% acetic acid, and attached stain was recovered with Tris-EDTA buffer. Color intensity was measured in an ELISA reader. The relation between percent of surviving fraction and drug concentration is plotted to get the survival curve for each cell line. […]

MDA-MB-231 cells = assay: SRB antiproliferative assay, MDA-MB-231; type: cell-based, human; settings: for IC50: MDA-MB-231 triple-negative breast cancer cells, SRB assay, 48 h, mean ± S.D. of three experiments; for potency relative to Staurosporine, MDA-MB-231 / potency relative to non-brominated counterpart (9g vs 9d, 9h vs 9e), MDA-MB-231: ratio of IC50 values, MDA-MB-231 cells
Procedure: as §1, §2, §3, §4, §5

CDK2 = biological target: T1, CDK2 (Homo sapiens, UniProt P24941); assay: CDK2 kinase inhibition (Reaction Biology HotSpot); type: biochemical; settings: single dose of 10 µM; for inhibition at 10 µM: read-out: % Enzyme Inhibitory Activity; for % Enzyme Inhibitory Activity: 10 µM
T1 construct: purchased Reaction Biology Corp. (Kinase HotSpot service)
Procedure: The in vitro CDK2 kinase inhibition assay was carried out by Reaction Biology Corp. (Reaction Biology Corp., Chester, PA, USA) Kinase HotSpotSM service (http://www.reactionbiology.com).
5. CDK2 kinase inhibitory activity
Reaction Biology Corp. Kinase HotSpotSM service
(http://www.reactionbiology.com) was used for screening of tested compounds. CDK2 Kinase inhibitory activity was assessed by the HotSpot assay platform, which contained specific kinase/substrate pairs along with required cofactors. Base reaction buffer:
0.1 mM Na3VO4, 2 mM DTT, 1% DMSO. Testing compounds were dissolved in 100% DMSO to specific concentration. The serial dilution was conducted by Integra Viaflo Assist in DMSO. The reaction mixture containing the examined compound and 33P-ATP was incubated at room temperature for 2 h and radioactivity was detected by filter-binding method. Kinase activity data were expressed as the percent remaining kinase activity in test samples compared to vehicle (dimethyl sulfoxide) reactions.

MCF-10A cells = assay: SRB cytotoxicity assay, non-tumorigenic MCF-10A; type: cell-based, human; settings: for Selectivity Index MCF-10A/MCF-7: IC50 MCF-10A / IC50 MCF-7; for IC50: non-tumorigenic human breast epithelial MCF-10A cells, SRB assay
Excerpt: The two examined human breast cancer cell lines (MCF-7 and Breast MDA-MB-231), and non-tumorigenic human breast epithelial cell line (MCF-10A) have been obtained from the American Type Culture Collection (ATCC). Assessment of cytotoxicity for target indole derivatives has been performed following the SRB colorimetric assay procedures, as reported earlier.
1. Anti-proliferative action toward human breast cell lines
The two examined human breast cancer cell lines (MCF-7 and Breast MDA-MB-231), and non-tumorigenic human breast epithelial cell line (MCF-10A) have been obtained from American Type Culture Collection (ATCC). The cells were maintained in Dulbecco's modified Eagle's medium (DMEM) supplemented with 10% heat inactivated fetal calf serum (GIBCO), penicillin (100 U/ml) and streptomycin (100 µg/ml) at 37 °C in humidified atmosphere containing 5% CO2. Cells at a concentration of 0.50 x 106 were grown in a 25 cm2 flask in 5 ml of culture medium.
The anti-proliferative activity of the tested compounds was measured in vitro using the Sulfo-Rhodamine-B stain (SRB) assay. Briefly, Cells were inoculated in 96-well microtiter plate (5X104 cells/ well) for 24 h before treatment with the tested compounds to allow attachment of cell to the wall of the plate. Tested compounds were dissolved in DMSO at 1 mg/ml immediately before use and diluted to the appropriate volume just before addition to the cell culture. Different concentrations of tested compounds, doxorubicin and sorafenib were added to the cells (three wells were prepared for each individual dose). Cells were incubated with the compounds for 48 h at 37°C and in atmosphere of 5% CO2. After 48 h cells were fixed, washed, and stained for 30 min with 0.4% (w/v) SRB dissolved in 1% acetic acid. Unbound dye was removed by four washes with 1% acetic acid, and attached stain was recovered with Tris-EDTA buffer. Color intensity was measured in an ELISA reader. The relation between percent of surviving fraction and drug concentration is plotted to get the survival curve for each cell line. […]

Compound	melting point	IC50 (MCF-7 cells; Homo sapiens, MCF7, 48 h)	IC50 (MDA-MB-231 cells; Homo sapiens, MDA-MB-231, 48 h)	inhibition at 10 µM (CDK2)	% Enzyme Inhibitory Activity (CDK2)	IC50 (MCF-7 cells)	IC50 (MDA-MB-231 cells)	Selectivity Index MCF-10A/MCF-7 (MCF-10A cells)	IC50 (MCF-10A cells)	potency relative to Staurosporine, MDA-MB-231 (MDA-MB-231 cells)	potency relative to Staurosporine, MCF-7 (MCF-7 cells)	potency relative to non-brominated counterpart (9g vs 9d, 9h vs 9e), MDA-MB-231 (MDA-MB-231 cells)
O=C(Cc1c[nH]c2ccccc12)NN=C1C(=O)Nc2ccc(Br)cc21 [Compound 7c, N′-(5-Bromo-2-oxoindolin-3-ylidene)-2-(1H-indol-3-yl)acetohydrazide]	> 300 °C	36.2 ± 2.78 µM	36.6 ± 1.81 µM									
CN[C@@H]1C[C@H]2O[C@@](C)([C@@H]1OC)n1c3ccccc3c3c4c(c5c6ccccc6n2c5c31)C(=O)NC4 [Staurosporine, reference compound]		6.81 ± 0.22 µM										
N′-(1-(sec-Butyl)-2-oxoindolin-3-ylidene)-2-(1H-indol-3-yl)acetohydrazide [Compound 9c]						47.1 ± 3.65 µM	> 100 µM					
Cc1ccc2c(c1)C(=NNC(=O)Cc1c[nH]c3ccccc13)C(=O)N2 [Compound 7d, 2-(1H-Indol-3-yl)-N′-(5-methyl-2-oxoindolin-3-ylidene)acetohydrazide]	> 300 °C	11 ± 0.81 µM	0.34 ± 0.02 µM	58%				5.0	54.9 µM	30.3 times		
Cc1cc(C)c2c(c1)C(=NNC(=O)Cc1c[nH]c3ccccc13)C(=O)N2 [Compound 7f, N′-(5,7-Dimethyl-2-oxoindolin-3-ylidene)-2-(1H-indol-3-yl)acetohydrazide]	294 to 296 °C	> 100 µM	77.3 ± 6.21 µM			> 100 µM						
O=C(Cc1c[nH]c2ccccc12)NN=C1CCCc2ccccc21 [Compound 11, N′-(3,4-Dihydronaphthalen-1(2H)-ylidene)-2-(1H-indol-3-yl)acetohydrazide]	244 to 245 °C	84.7 ± 4.02 µM	> 100 µM				> 100 µM					
O=C(Cc1c[nH]c2ccccc12)NN=C1C(=O)Nc2ccc(F)cc21 [Compound 7a, N′-(5-Fluoro-2-oxoindolin-3-ylidene)-2-(1H-indol-3-yl)acetohydrazide]	281 to 283 °C	1.53 ± 0.02 µM	9.04 ± 0.32 µM	44%	41%			9.2	14.1 µM		4.45 times	
O=C(Cc1c[nH]c2ccccc12)NN=C1C(=O)Nc2ccc(Cl)cc21 [Compound 7b, N′-(5-Chloro-2-oxoindolin-3-ylidene)-2-(1H-indol-3-yl)acetohydrazide]	292 to 294 °C	8.87 ± 0.43 µM	2.88 ± 0.08 µM	44%	41%			4.5	39.5 µM			

Continued, in another order:

melting point	IC50 (MCF-7 cells; Homo sapiens, MCF7, 48 h)	IC50 (MDA-MB-231 cells; Homo sapiens, MDA-MB-231, 48 h)	inhibition at 10 µM (CDK2)	% Enzyme Inhibitory Activity (CDK2)	Compound	IC50 (MCF-7 cells)	IC50 (MDA-MB-231 cells)	Selectivity Index MCF-10A/MCF-7 (MCF-10A cells)	IC50 (MCF-10A cells)	potency relative to Staurosporine, MDA-MB-231 (MDA-MB-231 cells)	potency relative to Staurosporine, MCF-7 (MCF-7 cells)	potency relative to non-brominated counterpart (9g vs 9d, 9h vs 9e), MDA-MB-231 (MDA-MB-231 cells)
207 to 208 °C	28.2 ± 1.53 µM	51.3 ± 3.59 µM			CCCN1C(=O)C(=NNC(=O)Cc2c[nH]c3ccccc23)c2ccccc21 [Compound 9b, 2-(1H-Indol-3-yl)-N′-(2-oxo-1-propylindolin-3-ylidene)acetohydrazide]							
223 to 225 °C	1.51 ± 0.03 µM	4.14 ± 0.19 µM			O=C(Cc1c[nH]c2ccccc12)NN=C1C(=O)N(Cc2ccccc2)c2ccccc21 [Compound 9d, N′-(1-Benzyl-2-oxoindolin-3-ylidene)-2-(1H-indol-3-yl)acetohydrazide]			12.7	19.1 µM	2.5 times	4.5 times	
233 to 234 °C	8.72 ± 0.39 µM	25.4 ± 1.56 µM			N#Cc1ccc(CN2C(=O)C(=NNC(=O)Cc3c[nH]c4ccccc34)c3ccccc32)cc1 [Compound 9f, N′-(1-(4-Cyanobenzyl)-2-oxoindolin-3-ylidene)-2-(1H-indol-3-yl)acetohydrazide]			4.8	42 µM			
183 to 185 °C	20.89 ± 0.04 µM	2.29 ± 0.09 µM			O=C(Cc1c[nH]c2ccccc12)NN=C1C(=O)N(Cc2ccc(F)cc2)c2ccc(Br)cc21 [Compound 9h, N′-(5-Bromo-1-(4-fluorobenzyl)-2-oxoindolin-3-ylidene)-2-(1H-indol-3-yl)acetohydrazide]			1.2	26.1 µM			7.7 times
227 to 229 °C	10.4 ± 0.81 µM	17.7 ± 0.55 µM			O=C(Cc1c[nH]c2ccccc12)NN=C1C(=O)N(Cc2ccc(F)cc2)c2ccccc21 [Compound 9e, N′-(1-(4-Fluorobenzyl)-2-oxoindolin-3-ylidene)-2-(1H-indol-3-yl)acetohydrazide]			4.7	48.4 µM			
210 to 211 °C	2.76 ± 0.14 µM	2.85 ± 0.07 µM			O=C(Cc1c[nH]c2ccccc12)NN=C1C(=O)N(Cc2ccccc2)c2ccc(Br)cc21 [Compound 9g, N′-(1-Benzyl-5-bromo-2-oxoindolin-3-ylidene)-2-(1H-indol-3-yl)acetohydrazide]			6.2	17.2 µM			1.5 times
